Experimental data published in publication PMC5967881 (Journal of medicinal chemistry, 2017).
Several values for one entry are separate records, joined by “and”; a condition that tells them apart may be missing. Equal entries are not always repeated. Where two headings read alike, the source gives them in different places.

Key:
[1] = target: AM2-S31N proton channel (Influenza A virus, UniProt P0DOF5, S31N); type: biochemical; settings: pH 5.5, 100 µM
[2] = test system: A/Washington/29/2009 (H1N1); assay: microbe, parasite or virus in culture; type: cell-based; settings: Influenza A virus, H1N1, read-out: EC50 against A/Washington/29/2009 (H1N1)
[3] = test system: A/Denmark/528/2009 (H1N1); assay: microbe, parasite or virus in culture; type: cell-based; settings: Influenza A virus, H1N1, read-out: EC50 against A/Denmark/528/2009 (H1N1)

Row | Compound | Electrophysiological TEVC assay (% S31N channel inhibition) ([1]; 100 µM) | other results
1 | 3-({[5-(3-methoxythiophen-2-yl)-1,2-oxazol-3-yl]methyl}amino)adamantan-1-ol [9s] | 83.8 ± 3.3% | –
2 | c1ccc(-c2cc(CNC34CC5CC(CC(C5)C3)C4)no2)cc1 [9a, N-[(5-phenyl-1,2-oxazol-3-yl)methyl]adamantan-1-amine] | 91.2 ± 1.5% | –
3 | OC12CC3CC(C1)CC(NCc1cc(-c4ccccc4Cl)on1)(C3)C2 [9d, 3-({[5-(2-chlorophenyl)-1,2-oxazol-3-yl]methyl}amino)adamantan-1-ol] | > 70% | –
4 | CSc1ccccc1-c1cc(CNC23CC4CC(CC(O)(C4)C2)C3)no1 [9f, 3-[({5-[2-(methylsulfanyl)phenyl]-1,2-oxazol-3-yl}methyl)amino]adamantan-1-ol] | > 70% and > 90% | –
5 | Oc1ccccc1-c1cc(CNC23CC4CC(CC(C4)C2)C3)no1 [9h, 2-(3-(((adamantan-1-yl)amino)methyl)isoxazol-5-yl)phenol] | > 70% | –
6 | Clc1ccc(-c2cc(CNC34CC5CC(CC(C5)C3)C4)no2)s1 [9q, N-((5-(5-chlorothiophen-2-yl)isoxazol-3-yl)methyl)adamantan-1-amine] | > 70% | EC50 [2]: 100 to 200 nM; EC50 [3]: 100 to 200 nM
7 | Clc1cc(-c2cc(CNC34CC5CC(CC(C5)C3)C4)no2)cs1 [9r, N-((5-(5-chlorothiophen-3-yl)isoxazol-3-yl)methyl)adamantan-1-amine] | > 70% | –
8 | COc1sccc1-c1cc(CNC23CC4CC(CC(C4)C2)C3)no1 [9t, N-((5-(2-methoxythiophen-3-yl)isoxazol-3-yl)methyl)adamantan-1-amine] | > 70% | –
9 | Clc1cc(-c2cc(CNC34CC5CC(CC(C5)C3)C4)no2)c(Cl)s1 [9u, N-((5-(2,5-dichlorothiophen-3-yl)isoxazol-3-yl)methyl)adamantan-1-amine] | > 70% | –
10 | OC12CC3CC(C1)CC(NCc1cc(-c4cc(Cl)sc4Cl)on1)(C3)C2 [9v, 3-({[5-(2,5-dichlorothiophen-3-yl)-1,2-oxazol-3-yl]methyl}amino)adamantan-1-ol] | > 70% | –
11 | N-((5-(2-(methylsulfonyl)phenyl)isoxazol-3-yl)methyl)adamantan-1-amine [9m] | – | Electrophysiological TEVC assay (% S31N channel inhibition) [1]: 47.4 ± 0.5%
